Biological target: T1, Rho kinase (Bos taurus, UniProt Q28021)
T1 construct: Rho kinase was selectively immobilized from the bovine brain extract fraction; from tissue; host or cells: bovine brain gray matter extract, captured on an anti-ROKII peptide antibody plate
Assay: Assay of the inhibition of phosphorylation by Rho kinase
Format: biochemical
Conditions: Rho kinase immobilized from bovine brain extract fraction on anti-Rho kinase antibody plate; 0.1 μM ATP ([γ-32P]ATP), histone (HF2A) substrate; room temperature, 4 hours
Description: Assay of the inhibition of phosphorylation by Rho kinase
A bovine brain extract fraction was prepared as follows. That is, a piece of gray matter was minced from bovine brain and suspended in a buffer solution for immunoprecipitation (10 mM tris(hydroxymethyl)aminomethane (Tris) (pH 7.5), 1% Triton X-100, 0.5% NP-40, 150 mM NaCl, 20 mM sodium fluoride, 1 mM ethylenediaminetetraacetic acid (EDTA), 1 mM ethylene glycol bis(β-aminoethyl ether)-N,N,N′,N′-tetraacetic acid (EGTA) and 0.2 mM phenylmethylsulfonyl fluoride (PMSF)) in two volumes of the gray matter. The tissue was homogenized by the use of a Potter type homogenizer made of polytetrafluoroethylene. After the homogenate was centrifuged at 20,000 g for 15 minutes, the supernatant was collected and then subjected to ultracentrifugation at 100,000 g for 60 minutes. The resulting supernatant was used as a bovine brain extract fraction.
An anti-Rho kinase antibody immobilized plate was prepared as follows. That is, a secondary antibody (anti-goat IgG (Fc) antibody) was diluted 300-fold with phosphate-buffered saline (PBS) (1 μl antibody/300 μl PBS), and 100 μl of the resulting dilution was added to each well of a 96-well ELISA plate. After coating at room temperature for 2 hours, the supernatant was removed. Thereafter, 100 μl of PBS was added and then the supernatant was removed (this washing operation was carried out twice). After the washing, 100 μl of a blocking buffer solution (0.05% Tween 20 and 0.25% bovine serum albumin (fatty acid free)/PBS) was added, followed by blocking at room temperature for 1 hour. After the blocking, each well was washed twice with 100 μl of the blocking buffer solution, and 100 μl of a primary antibody (anti-ROKII (Rho kinase) peptide antibody) diluted 200-fold (0.5 μl (0.1 μg)/100 μl) with PBS was added, followed by coating at room temperature for 2 hours. After the coating, each well was washed once with 100 μl of the blocking buffer solution. In addition, 100 μl of the blocking buffer solution was added to obtain an anti-Rho kinase antibody immobilized plate.
Using the aforesaid plate, Rho kinase was selectively immobilized from the bovine brain extract fraction, and phosphorylation by Rho kinase was assayed. To each well of the antibody-immobilized plate was added 100 μl of a bovine brain extract solution prepared so as to have a concentration of 1.5 mg/ml, and the reactions were incubated at 4° C. for 1 hour to immobilize Rho kinase on the plate. After completion of the reaction, the supernatant was removed and each well was washed three times with 100 μl of the buffer solution for immunoprecipitation. In addition, each well was washed three times with 100 μl of buffer solution A (50 mM Tris (pH 7.5), 10 mM MgCl2 and 150 mM NaCl). To each well of the plate freed from the supernatant was added 40 μl of the aforesaid buffer solution for reaction (50 mM Tris-HCl (pH 7.5), 2 mM EDTA and 10 mM MgCl2). Further, adenosine 5′-triphosphate (ATP) buffer (0.1 μM ATP (containing 6 nM [v-^32P]ATP) and 10 μg histone (HF2A)) containing each compound was prepared, and 10 μl of this solution was added to each well of the plate to initiate the reaction. The reactions were carried out at room temperature for 4 hours. The reaction was terminated by the addition of a phosphoric acid solution of a final concentration of 75 mM and 50 μM ATP. After completion of the reaction, 50 μl of the reaction solutions were spotted onto a phosphocellulose filter for Beta Plate 1205 (Wallac) only. After completion of the spot, the filter was washed with 150 ml of a 75 mM phosphoric acid solution for 10 minutes. This washing operation was repeated three times. After completion of the washing, the filter was dried and then wrapped in a cellophane bag, and 10 ml of a liquid scintillation cocktail was added. The amount of energy (β-ray radioactivity count) trapped in the filter was measured with Beta Plate 1205. […]

T1 sequence (Q28021 whole entry): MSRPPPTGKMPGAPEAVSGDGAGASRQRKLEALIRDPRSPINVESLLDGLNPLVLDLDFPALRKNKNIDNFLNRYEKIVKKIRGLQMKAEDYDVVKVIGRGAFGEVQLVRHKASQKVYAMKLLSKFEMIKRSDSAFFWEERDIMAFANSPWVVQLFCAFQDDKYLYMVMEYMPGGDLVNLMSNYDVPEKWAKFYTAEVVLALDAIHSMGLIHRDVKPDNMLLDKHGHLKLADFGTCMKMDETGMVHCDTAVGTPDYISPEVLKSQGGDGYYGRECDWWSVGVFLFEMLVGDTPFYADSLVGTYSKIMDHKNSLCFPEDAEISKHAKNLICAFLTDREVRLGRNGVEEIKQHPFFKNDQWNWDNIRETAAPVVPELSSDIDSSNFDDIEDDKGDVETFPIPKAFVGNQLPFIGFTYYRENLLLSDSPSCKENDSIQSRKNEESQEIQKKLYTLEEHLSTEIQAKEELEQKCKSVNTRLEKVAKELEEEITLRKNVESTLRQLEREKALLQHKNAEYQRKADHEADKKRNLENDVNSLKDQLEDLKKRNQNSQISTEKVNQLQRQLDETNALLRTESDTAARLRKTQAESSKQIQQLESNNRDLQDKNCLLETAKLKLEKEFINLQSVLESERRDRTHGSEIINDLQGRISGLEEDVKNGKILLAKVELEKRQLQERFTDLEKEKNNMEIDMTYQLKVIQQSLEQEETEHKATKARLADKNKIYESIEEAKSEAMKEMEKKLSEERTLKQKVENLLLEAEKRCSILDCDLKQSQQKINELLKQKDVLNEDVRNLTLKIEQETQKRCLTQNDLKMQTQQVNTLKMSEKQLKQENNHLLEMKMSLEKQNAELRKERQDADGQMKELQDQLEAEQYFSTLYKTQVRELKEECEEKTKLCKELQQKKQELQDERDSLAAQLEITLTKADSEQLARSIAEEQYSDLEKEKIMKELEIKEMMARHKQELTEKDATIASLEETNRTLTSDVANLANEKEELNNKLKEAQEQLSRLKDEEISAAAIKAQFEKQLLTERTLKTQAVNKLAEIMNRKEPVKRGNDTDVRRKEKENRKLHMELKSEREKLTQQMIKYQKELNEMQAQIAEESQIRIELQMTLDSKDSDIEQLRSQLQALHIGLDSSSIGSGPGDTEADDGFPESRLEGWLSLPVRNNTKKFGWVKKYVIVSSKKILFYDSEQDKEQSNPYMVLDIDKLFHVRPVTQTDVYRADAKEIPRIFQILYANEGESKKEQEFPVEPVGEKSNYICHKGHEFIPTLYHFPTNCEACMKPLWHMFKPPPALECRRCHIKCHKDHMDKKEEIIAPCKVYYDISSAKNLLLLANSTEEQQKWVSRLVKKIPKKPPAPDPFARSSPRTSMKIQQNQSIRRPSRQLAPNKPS

| IC50 | SMILES |
| --- | --- |
| 2000 nM | NC(=O)c1ccc(NC2CCN(Cc3ccccc3)CC2)cc1 [Example 10, 4-[(1-benzylpiperidin-4-yl)amino]benzamide] |
| 21.8 nM | COc1cc(N[C@H]2CC[C@H](N)CC2)c(Cl)cc1C(N)=O [Example 113, 4-[(trans-4-aminocyclohexyl)amino]-5-chloro-2-methoxybenzamide] |
| 28.7 nM | NC(=O)c1cc(Cl)c(N[C@H]2CC[C@H](N)CC2)cc1F [Example 141, 4-[trans-(4-aminocyclohexyl)-amino]-5-chloro-2-fluorobenzamide] |
| 28.4 nM | COc1cc(N[C@H]2CC[C@H](N)CC2)c(F)cc1C(N)=O [Example 158, 4-[(trans-4-aminocyclo-hexyl)amino]-5-fluoro-2-methoxybenzamide] |
| 24.4 nM | COc1cc(O[C@H]2CC[C@H](N)CC2)c(Cl)cc1C(N)=O [Example 159, 4-[(trans-4-aminocyclohexyl)-oxy]-5-chloro-2-methoxybenzamide] |
| 26.4 nM | NC(=O)c1cc(F)c(N[C@H]2CC[C@H](N)CC2)cc1F [Example 162, 4-[trans-(4-aminocyclohexyl)-amino]-2,5-difluorobenzamide] |
| 24.8 nM | NC(=O)c1cc(Br)c(N[C@H]2CC[C@H](N)CC2)cc1F [Example 163, 4-[trans-(4-aminocyclohexyl)-amino]-5-bromo-2-fluorobenzamide] |

System: not given
Assay: not given
Conditions: not given

| melting point | SMILES |
| --- | --- |
| 292 to 294 °C (dec.) | Cl.NC(=O)c1ccc(NC2CCNCC2)cc1 |
| 192 to 193 °C | NC(=O)c1ccc(NC2CCN(Cc3ccccc3)CC2)cc1 [Example 10, 4-[(1-benzylpiperidin-4-yl)amino]benzamide] |
| 211 to 212 °C | NC(=O)c1ccc(NC(=O)C2CCCN(Cc3ccccc3)C2)cc1 (centres unmarked) [Example 13, N-[4-(aminocarbonyl)phenyl]-1-benzylpiperidine-3-carboxamide] |
| 166 to 168 °C | NC(=O)c1ccc(OC2CCN(Cc3ccccc3)CC2)cc1 [Example 25, 4-[(1-benzylpiperidin-4-yl)oxy]benzamide] |
| 155 to 157 °C | COc1cc(NC2CCN(Cc3ccccc3)CC2)ccc1C(N)=O [Example 28, 4-[(1-benzylpiperidin-4-yl)amino]-2-methoxybenzamide] |
| 175 to 176 °C | COc1cc(NCc2ccccc2)ccc1C(N)=O [Example 85, 4-(benzylamino)-2-methoxybenzamide] |
| 180 to 183 °C | COc1cc(NCc2ccncc2)ccc1C(N)=O [Example 128, 2-Methoxy-4-[(pyridin-4-ylmethyl)amino]-benzamide] |

Source: patent publication US20050182040A1, “Benzamide derivatives” (priority 2002, published 2005)
